Results from patent US20240150377A1, “MODULATORS OF CYSTIC FIBROSIS TRANSMEMBRANE CONDUCTANCE REGULATOR” (VERTEX PHARMACEUTICALS INCORPORATED, priority 2020, published 2024).
Read-outs that look alike come from different tables or passages of the source. One block for each compound: values may come before it.

Molecular target: T1, CFTR (Homo sapiens, UniProt P13569, DEL508-508)
T1 construct: endogenous in cells; host or cells: primary human bronchial epithelial cells from CF subjects (F508del/MF-HBE), differentiated at air-liquid interface
Assay: HBE assay: Ussing chamber assay of CFTR-mediated short-circuit currents
Assay type: cell-based
Outline: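 CFTR-mediated Isc (μA/cm²) equals the peak response to apical 20 μM forskolin minus the residual after a 20 μM each BPO/GlyH-101/CFTR inhibitor 172 cocktail, recorded in Ussing chambers at Vhold 0 mV, 37 °C, pH 7.4, with 30 μM apical amiloride. Cells were F508del/MF HBE cultures preincubated 18-24 h with corrector (concentration range or 10 μM) plus 1 μM ivacaftor in 20% human serum.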

[1] = HBE assay, 10 μM, read-out: HBE Activity at 10 μM (%)
[2] = Table 11, read-out: HBE Max Activity (%)
[3] = HBE assay, read-out: HBE Max activity (%)
[4] = Table 13, at 10 μM, read-out: HBE Activity at 10 μM (%)
[5] = Table 10, read-out: HBE Max activity (%)
[6] = Table 12, at 10 μM, read-out: HBE Activity at 10 μM (%)
[7] = Table 11, at 10 μM, read-out: HBE Activity at 10 μM (%)
[8] = Table 10, at 10 μM, read-out: HBE activity at 10 (μM) (%)
[9] = Table 12, read-out: HBE Max Activity (%)

T1 sequence (P13569 with tags, fused parts or gaps DEL508-508): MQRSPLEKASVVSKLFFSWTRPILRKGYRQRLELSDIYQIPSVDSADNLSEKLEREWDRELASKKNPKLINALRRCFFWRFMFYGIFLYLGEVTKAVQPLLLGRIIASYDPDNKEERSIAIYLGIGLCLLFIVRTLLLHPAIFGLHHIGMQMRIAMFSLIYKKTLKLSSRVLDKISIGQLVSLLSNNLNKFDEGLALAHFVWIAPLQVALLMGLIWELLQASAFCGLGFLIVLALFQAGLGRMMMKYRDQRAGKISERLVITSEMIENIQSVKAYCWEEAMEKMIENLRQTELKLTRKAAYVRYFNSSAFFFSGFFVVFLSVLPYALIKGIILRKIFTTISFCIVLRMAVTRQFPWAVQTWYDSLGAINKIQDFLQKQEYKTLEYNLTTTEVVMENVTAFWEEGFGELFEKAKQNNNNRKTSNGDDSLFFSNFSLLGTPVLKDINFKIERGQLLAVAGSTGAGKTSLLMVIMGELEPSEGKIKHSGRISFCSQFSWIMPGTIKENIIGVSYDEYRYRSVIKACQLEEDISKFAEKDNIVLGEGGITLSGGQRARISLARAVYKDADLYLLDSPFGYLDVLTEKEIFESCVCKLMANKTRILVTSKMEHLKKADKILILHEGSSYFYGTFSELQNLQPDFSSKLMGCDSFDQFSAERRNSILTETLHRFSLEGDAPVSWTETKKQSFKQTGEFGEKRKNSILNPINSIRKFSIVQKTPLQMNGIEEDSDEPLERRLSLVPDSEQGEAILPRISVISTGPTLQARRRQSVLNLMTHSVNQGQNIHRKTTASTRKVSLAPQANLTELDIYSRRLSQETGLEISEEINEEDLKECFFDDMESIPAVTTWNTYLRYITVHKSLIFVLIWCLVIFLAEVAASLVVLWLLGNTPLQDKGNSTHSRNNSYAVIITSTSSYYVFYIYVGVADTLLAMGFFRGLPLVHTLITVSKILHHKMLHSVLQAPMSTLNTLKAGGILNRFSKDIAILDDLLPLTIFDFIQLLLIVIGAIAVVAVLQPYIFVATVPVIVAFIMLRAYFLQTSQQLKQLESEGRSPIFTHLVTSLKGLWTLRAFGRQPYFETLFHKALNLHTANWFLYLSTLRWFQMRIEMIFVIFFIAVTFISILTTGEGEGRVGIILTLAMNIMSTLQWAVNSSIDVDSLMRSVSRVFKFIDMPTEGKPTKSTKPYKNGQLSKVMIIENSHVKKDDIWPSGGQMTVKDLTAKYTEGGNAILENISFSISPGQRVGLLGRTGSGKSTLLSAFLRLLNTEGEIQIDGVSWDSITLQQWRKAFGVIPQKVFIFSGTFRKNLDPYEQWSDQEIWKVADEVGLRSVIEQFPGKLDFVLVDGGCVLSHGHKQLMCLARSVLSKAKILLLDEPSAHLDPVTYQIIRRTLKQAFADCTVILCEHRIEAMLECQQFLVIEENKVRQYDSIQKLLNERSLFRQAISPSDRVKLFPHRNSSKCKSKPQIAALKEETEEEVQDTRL

Compound: Cc1cccc(C)c1-c1cc2nc(n1)NS(=O)(=O)c1cccc(c1)C(=O)N(Cc1cccc(N3CCC[C@H]3C)n1)[C@H](CC(C)(C)C)CO2 [Compound 132, (11R)-6-(2,6-Dimethylphenyl)-11-(2,2-dimethylpropyl)-12-({6-[(2R)-2-methylpyrrolidin-1-yl]pyridin-2-yl}methyl)-9-oxa-2λ^6-thia-3,5,12,19-tetraazatricyclo[12.3.1.14,8]nonadeca-1(17),4,6,8(19),14(18),15-hexaene-2,2,13-trione]
EC50 (HBE EC50 (μM), Table 11): < 1 µM
Emax (read-out: HBE Max activity (%)): > 60%

activation at 10 µM [1]: > 60%
Compound: COC[C@]1(C)CCCN1c1cccc(CN2C(=O)c3cccc(c3)S(=O)(=O)Nc3nc(cc(-c4c(C)cccc4C)n3)OC[C@H]2CC(C)(C)C)n1 [Compound 1511]

EC50 (Table 11, read-out: HBE EC50): < 1 µM
Emax [2]: > 60%
Compound: Cc1cccc(C)c1-c1cc2nc(n1)NS(=O)(=O)c1cccc(c1)C(=O)N(Cc1cccc(-n3cc(C(C)(C)C)cn3)n1)[C@H](CC(C)(C)C)CO2 [Compound 732]

EC50 (HBE assay, read-out: HBE EC50): < 1 µM
Emax [3]: > 60%
Compound: Cc1cccc(C)c1-c1cc2nc(n1)NS(=O)(=O)c1cccc(c1)C(=O)N(Cc1ncc(O[C@H](C)C(C)C)cn1)[C@H](CC(C)(C)C)CO2 [Compound 1377]

activation at 10 µM [1]: > 60%
Compound: COC[C@@H]1COCCN1c1cccc(CN2C(=O)c3cccc(c3)S(=O)(=O)Nc3nc(cc(-c4c(C)cccc4C)n3)OC[C@H]2CC(C)(C)C)n1 [Compound 1435]

EC50 (Table 11, read-out: HBE EC50): 3 to 30 µM
Emax [2]: > 60%
Compound: Cc1cccc(C)c1-c1cc2nc(n1)NS(=O)(=O)c1cccc(c1)C(=O)N(Cc1cnc(C3CCCC3)cn1)[C@H](CC(C)(C)C)CO2 [Compound 890]

activation at 10 µM [4]: > 600%
Compound: Cc1cccc(C)c1-c1cc2nc(n1)NS(=O)(=O)c1cccc(c1)C(=O)N(CC(=O)N1CCC3(CCC3)C1)[C@H](CC(C)(C)C)CO2 [Compound 165]

EC50 (Table 10, read-out: HBE EC50): 1 to 3 µM
Emax [5]: > 60%
Compound: Cc1cccc(C)c1-c1cc2nc(n1)NS(=O)(=O)c1cccc(c1)C(=O)N(Cc1ccc(N(C)CC(C)(C)C)cn1)[C@H](CC(C)(C)C)CO2 [Compound 497]

Compound: Cc1cccc(C)c1-c1cc2nc(n1)NS(=O)(=O)c1cccc(c1)C(=O)N(Cc1cccc(N3CCC[C@H]3C3CC3)n1)[C@H](CC(C)(C)C)CO2 [Compound 1497]
EC50 (HBE EC50 (μM), HBE assay): < 1 µM
Emax (read-out: HBE Max activity (%)): > 60%

EC50 (Table 11, read-out: HBE EC50): < 1 µM
Emax [2]: > 60%
Compound: Cc1cccc(C)c1-c1cc2nc(n1)NS(=O)(=O)c1cccc(c1)C(=O)N(Cc1cccc(N3CCC(C)(O)CC3)n1)[C@H](CC(C)(C)C)CO2 [Compound 721]

activation at 10 µM [6]: > 600%
Compound: Cc1cccc(C)c1-c1cc2nc(n1)NS(=O)(=O)c1cccc(c1)C(=O)N(Cc1ccc(C3=CCCCC3)nn1)[C@H](CC(C)(C)C)CO2 [Compound 237]

Emax [5]: > 60%
Compound: COCCNc1cccc(CN2C(=O)c3cccc(c3)S(=O)(=O)Nc3nc(cc(-c4c(C)cccc4C)n3)OC[C@H]2CC(C)(C)C)n1 [Compound 475]

activation at 10 µM [6]: > 600%
Compound: Cc1cccc(C)c1-c1cc2nc(n1)NS(=O)(=O)c1cccc(c1)C(=O)N(Cc1cncc(N(C)CC(C)(C)C)c1)[C@H](CC(C)(C)C)CO2 [Compound 281]

activation at 10 µM [7]: > 60%
EC50 (Table 11, read-out: HBE EC50): < 1 µM
Emax [2]: > 60%
Compound: Cc1cccc(C)c1-c1cc2nc(n1)NS(=O)(=O)c1cccc(c1)C(=O)N(Cc1ncc(N3CCCCC3)cn1)[C@H](CC(C)(C)C)CO2 [Compound 748]

EC50 (Table 11, read-out: HBE EC50): < 1 µM
Emax [2]: > 60%
Compound: Cc1cccc(C)c1-c1cc2nc(n1)NS(=O)(=O)c1cccc(c1)C(=O)N(Cc1nccc(N(C)CC(C)(C)C)n1)[C@H](CC(C)(C)C)CO2 [Compound 650]

activation at 10 µM [8]: > 60%
Compound: Cc1cccc(C)c1-c1cc2nc(n1)NS(=O)(=O)c1cccc(c1)C(=O)N(C[C@H]1CC[C@@H](O)CC1)[C@H](CC(C)(C)C)CO2 (single isomer, unassigned) [Compound 152]

Emax [5]: > 60%
Compound: Cc1cccc(C)c1-c1cc2nc(n1)NS(=O)(=O)c1cccc(c1)C(=O)N(Cc1cnn(CC(C)C)c1)[C@H](CC(C)(C)C)CO2 [Compound 487]

EC50 (Table 12, read-out: HBE EC50): < 1 µM
Emax [9]: > 60%
Compound: Cc1cccc(C)c1-c1cc2nc(n1)NS(=O)(=O)c1cccc(c1)C(=O)N(Cc1ncc(N3CCC[C@H]3C)cn1)[C@H](CC(C)(C)C)CO2 [Compound 572]

activation at 10 µM [8]: > 60%
Emax [5]: > 60%
Compound: Cc1ccnc(CN2C(=O)c3cccc(c3)S(=O)(=O)Nc3nc(cc(-c4c(C)cccc4C)n3)OC[C@H]2CC(C)(C)C)n1 [Compound 479]

EC50 (Table 10, read-out: HBE EC50): 1 to 3 µM
Emax [5]: > 60%
Compound: Cc1cccc(C)c1-c1cc2nc(n1)NS(=O)(=O)c1cccc(c1)C(=O)N(Cc1ccc(C3CCCCC3)cn1)[C@H](CC(C)(C)C)CO2 [Compound 50, (11R)-12-[(5-Cyclohexyl-2-pyridyl)methyl]-6-(2,6-dimethylphenyl)-11-(2,2-dimethylpropyl)-2,2-dioxo-9-oxa-2λ^6-thia-3,5,12,19-tetrazatricyclo[12.3.1.14,8]nonadeca-1(18),4(19),5,7,14,16-hexaen-13-one]

EC50 (Table 11, read-out: HBE EC50): < 1 µM
Emax [2]: > 60%
Compound: Cc1cccc(C)c1-c1cc2nc(n1)NS(=O)(=O)c1cccc(c1)C(=O)N(Cc1cccc(N3CC(C)(C)C3)n1)[C@H](CC(C)(C)C)CO2 [Compound 632]

EC50 (Table 12, read-out: HBE EC50): < 1 µM
Emax [9]: > 60%
Compound: Cc1cccc(C)c1-c1cc2nc(n1)NS(=O)(=O)c1cccc(c1)C(=O)N(Cc1ncc(OC3CCCC3)cn1)[C@H](CC(C)(C)C)CO2 [Compound 566]

EC50 (Table 11, read-out: HBE EC50): < 1 µM
Emax [2]: > 60%
Compound: COCCN(C)c1cccc(CCN2C(=O)c3cccc(c3)S(=O)(=O)Nc3nc(cc(-c4c(C)cccc4C)n3)OC[C@H]2CC(C)(C)C)n1 [Compound 464]

EC50 (Table 10, read-out: HBE EC50): < 1 µM
Emax [5]: > 60%
Compound: Cc1cccc(C)c1-c1cc2nc(n1)NS(=O)(=O)c1cccc(c1)C(=O)N(Cc1ccc(-c3cnc(N)nc3)cc1)[C@H](CC(C)(C)C)CO2 [Compound 782]

activation at 10 µM [7]: > 60%
EC50 (Table 11, read-out: HBE EC50): < 1 µM
Emax [2]: > 60%
Compound: C=C(C)c1cccc(CN2C(=O)c3cccc(c3)S(=O)(=O)Nc3nc(cc(-c4c(C)cccc4C)n3)OC[C@H]2CC(C)(C)C)n1 [Compound 735]

EC50 (Table 10, read-out: HBE EC50): 1 to 3 µM
Emax [5]: > 60%
Compound: Cc1cccc(C)c1-c1cc2nc(n1)NS(=O)(=O)c1cccc(c1)C(=O)N(Cc1ccc(-c3c(C)n[nH]c3C)cn1)[C@H](CC(C)(C)C)CO2 [Compound 298]

EC50 (HBE assay, read-out: HBE EC50): < 1 µM
Emax [3]: > 60%
Compound: COC(C)(C)CNc1cncc(CN2C(=O)c3cccc(c3)S(=O)(=O)Nc3nc(cc(-c4c(C)cccc4C)n3)OC[C@H]2CC(C)(C)C)n1 [Compound 1483]

activation at 10 µM [4]: > 600%
Compound: Cc1cccc(C)c1-c1cc2nc(n1)NS(=O)(=O)c1cccc(c1)C(=O)N(Cc1cc3ccoc3cn1)[C@H](CC(C)(C)C)CO2 [Compound 998]

activation at 10 µM [6]: > 600%
Compound: Cc1cccc(C)c1-c1cc2nc(n1)NS(=O)(=O)c1cccc(c1)C(=O)N(CC(=O)N(C)CC1CCCC1)[C@H](CC(C)(C)C)CO2 [Compound 229]

EC50 (Table 11, read-out: HBE EC50): < 1 µM
Emax [2]: > 60%
Compound: Cc1cccc(CN2C(=O)c3cccc(c3)S(=O)(=O)Nc3nc(cc(-c4c(C)cccc4C)n3)OC[C@H]2CC(C)(C)C)n1 [Compound 465]

activation at 10 µM [4]: > 600%
Compound: Cc1cccc(C)c1-c1cc2nc(n1)NS(=O)(=O)c1cccc(c1)C(=O)N(CC(=O)NCc1ccccn1)[C@H](CC(C)(C)C)CO2 [Compound 220]

EC50 (HBE assay, read-out: HBE EC50): < 1 µM
Emax [3]: > 60%
Compound: COCCN(CC(C)(C)C)c1cncc(CN2C(=O)c3cccc(c3)S(=O)(=O)Nc3nc(cc(-c4c(C)cccc4C)n3)OC[C@H]2CC(C)(C)C)n1 [Compound 1367]

EC50 (Table 12, read-out: HBE EC50): < 1 µM
Emax [9]: > 60%
Compound: Cc1cccc(C)c1-c1cc2nc(n1)NS(=O)(=O)c1cccc(c1)C(=O)N(Cc1ncc(OCC(C)(C)C)cn1)[C@H](CC(C)(C)C)CO2 [Compound 567]

EC50 (Table 10, read-out: HBE EC50): < 1 µM
Emax [5]: > 60%
Compound: COc1ccc(CN2C(=O)c3cccc(c3)S(=O)(=O)Nc3nc(cc(-c4c(C)cccc4C)n3)OC[C@H]2CC(C)(C)C)nc1 [Compound 501]

EC50 (Table 12, read-out: HBE EC50): < 1 µM
Emax [9]: > 60%
Compound: Cc1cccc(C)c1-c1cc2nc(n1)NS(=O)(=O)c1cccc(c1)C(=O)N(Cc1cccc(N3CCC[C@H]3C)n1)[C@H](CC(C)C)CO2 [Compound 573]

EC50 (Table 13, read-out: HBE EC50): 1 to 3 µM
Emax (Table 13, read-out: HBE Max Activity (%)): > 60%
Compound: Cc1cccc(C)c1-c1cc2nc(n1)NS(=O)(=O)c1cccc(c1)C(=O)N(Cc1ncc([C@@H](O)CO)cn1)[C@H](CC(C)(C)C)CO2 [Compound 1153]

EC50 (HBE assay, read-out: HBE EC50): < 1 µM
Emax [3]: > 60%
Compound: Cc1cccc(C)c1-c1cc2nc(n1)NS(=O)(=O)c1cccc(c1)C(=O)N(Cc1ncc(OC(F)(F)F)cn1)[C@H](CC(C)(C)C)CO2 [Compound 1425]

activation at 10 µM [6]: > 600%
Compound: Cc1cccc(C)c1-c1cc2nc(n1)NS(=O)(=O)c1cccc(c1)C(=O)N(Cc1cc3n(n1)CCC3)[C@H](CC(C)(C)C)CO2 [Compound 455]

EC50 (Table 11, read-out: HBE EC50): 1 to 3 µM
Emax [2]: > 60%
Compound: Cc1cccc(C)c1-c1cc2nc(n1)NS(=O)(=O)c1cccc(c1)C(=O)N(Cc1ncc(C3CCCCC3)cn1)[C@H](CC(C)(C)C)CO2 [Compound 644]

EC50 (Table 11, read-out: HBE EC50): < 1 µM
Emax [2]: > 60%
Compound: COC1CCN(c2cnc(CN3C(=O)c4cccc(c4)S(=O)(=O)Nc4nc(cc(-c5c(C)cccc5C)n4)OC[C@H]3CC(C)(C)C)nc2)CC1 [Compound 718]

activation at 10 µM [4]: > 600%
Compound: Cc1cccc(C)c1-c1cc2nc(n1)NS(=O)(=O)c1cccc(c1)C(=O)N(CC(=O)N1CCCCC1)[C@H](CC(C)(C)C)CO2 [Compound 200]
